According to patent publication US20120245229A1, “METHOD FOR TREATING NEUROPATHIC PAIN” (priority 2009, published 2012):
Like-named read-outs stand apart in the source and are kept apart here.

Tests used:
[1] = test system: complete Freund's adjuvant (CFA)-evoked heat hyperalgesia; assay: CFA-evoked heat hyperalgesia (paw withdrawal latency, Hargreaves); assay type: in vivo, mice; settings: intrathecal; for effective doses relative to that of RvE1: CFA heat hyperalgesia
Procedure: (§1) Animals and pain models. Adult CD1 mice (male, 25-32 g) were used for most experiments. Knockout mice were used lacking TNFR1/II (Tnfrsf1a/1b^−/−) and TRPV1 (Trpv1^−/−) and C57BL/6 wild-type control mice, all from Jackson, for some experiments. All animal procedures performed in this study were approved by the Harvard Medical Area Standing Committee on Animals. 20 μl of diluted formalin (5%), carrageenan (CRG, 1%), or complete Freund's adjuvant (CFA) were injected into the plantar surface of a hindpaw to produce acute, persistent, or chronic inflammatory pain, respectively. Postoperative pain was also produced through hindpaw incision^36 and neuropathic pain by ligation of the spinal nerve^37.
(§2) Reagents and administration. RvE1 and RvD1 were suspended in 1% or 10% ethanol as vehicle for investigating acute (<1 h) and persistent (1-6 h) effects of resolvins on inflammatory pain. The reagents (10 μl) were delivered to the cerebral spinal fluid via intrathecal injection made by a spinal cord puncture between the L5 and L6 level with a 30G needle^38.
(§3) Behavioral analysis. Mice were habituated in the testing environment for two days and performed behavioral testing in a blinded manner. Formalin-evoked spontaneous inflammatory pain was assessed by measuring duration (seconds) animals spent on licking/flinching the affected paws every 5 min for 45 min. Capsaicin-induced spontaneous pain was aslo assessed for 10 min. For testing mechanical sensitivity, mice were put in boxes on an elevated metal mesh floor and stimulated hindpaw with a series of von Frey hairs with logarithmically incrementing stiffness (0.02-2.56 grams, Stoelting), presented perpendicular to the plantar surface. It was determined the 50% paw withdrawal threshold using Dixon's up-down method^40. For testing heat sensitivity, mice were placed in plastic boxes and tested heat sensitivity using Hargreaves radiant heat apparatus (IITC Life Science Inc.). The basal paw withdrawal latency was adjusted to 9-12 seconds and set a cut-off of 20 seconds to prevent tissue damage. The percent maximal possible antinociceptive effect (% M.P.E) was calculated using the equation % M.P.E.=[(PL−BL2)/(BL1−BL2)]×100. BL1, baseline latency before inflammation; BL2, baseline latency after inflammation but before drug injection; PL, latency post drug injection.
(§4) Intrathecal injection. To avoid systemic effects of drugs and target spinal mechanisms, drugs were delivered into cerebral spinal fluid (CSF) space around lumbosacral spinal cord via intrathecal (i.t.) administration. Spinal cord puncture was made with a 30G needle between the L5 and L6 level to deliver the reagents (10 μl) to the cerebral spinal fluid (Hylden and Wilcox, 1980)^5. […] In addition to spinal cord cells, intrathecal drug administration also affects DRG cells^6,7.
The anti-hyperalgesic efficacy of RvE1 prepared in 1% and 10% ethanol was compared on post-CFA day 3.

[2] = test system: SNL-induced neuropathic pain; assay: Neuropathic pain model induced by spinal nerve ligation (SNL); assay type: in vivo, mice; settings: for SNL-induced heat hyperalgesia: 10 ng, i.t., one day after spinal nerve ligation
Procedure: as §1, §3

[3] = test system: formalin-induced inflammatory pain; assay: Formalin-induced spontaneous inflammatory pain (licking/flinching duration); assay type: in vivo, mice; settings: for formalin-induced pain behavior, 2nd phase: preemptive intrathecal injection, RvE1 0.3 and 1.0 ng, morphine 10 to 500 ng, NS-398 0.1, 1, and 10 μg, chemerin 0.45 to 100 ng; for reversal of RvE1's antinociceptive action, formalin 2nd phase: intrathecal, pertussis toxin 0.2 μg, naloxone 2 μg, ChemR23 siRNA 3 μg daily for 3 days before formalin
Procedure: as §1, §2, §3, §4
Intrathecal injection: DHA and EPA (Cayman Chemical, 10 μg, prepared in 1% ethanol), COX-2 inhibitor NS-398 (Sigma, 0.1, 1, and 10 μg, prepared in 1% ethanol in FIG. 1a-c or in 10% ethanol in FIG. 2c), morphine (Sigma, 10 to 500 ng, prepared in 1% ethanol in FIG. 1a-c), naloxone (Sigma, 2 μg, prepared in 1% ethanol), pertussis toxin (Tocris Bioscience, 0.2 μg, prepared in saline), chemerin (R & D Systems, 0.45 to 100 ng, prepared in 1% ethanol), TNF-α (R & D Systems, 20 ng, prepared in saline), and capsaicin (Sigma, 0.5 μg in 10 μl, prepared in 1% DMSO) were delivered. To examine whether pretreatment of RvE1 attenuated TNF-α-induced persistent hyperalgesia at 1, 3, and 24 h, RvE1 and TNF-α were mixed and injected at the same time (FIG. 3c). To examine whether pretreatment of RvE1 attenuates capsaicin-induced acute spontaneous pain, RvE1 and capsaicin were mixed and injected at the same time (FIG. 3f).

inflammatory pain = assay: Inflammatory pain models induced by formalin or CFA (summary statements); assay type: in vivo, mouse
Procedure: as §1, §3

lamina II neurons = assay: Patch clamp recording of sEPSCs in lamina II neurons of spinal cord slices; assay type: cell-based, mice
Procedure: (§5) Spinal cord slice preparation. As previously reported^39, a portion of the lumbar spinal cord (L4-L5) was removed from young mice (3-4 week old) under urethane anesthesia (1.5-2.0 g/kg, i.p.) and transverse spinal cord slices were cut (600 μm) on a vibrating microslicer. The slices were perfused with Kreb's solution (8 ml/min) for >2 h prior to experiments. Some slices were stimulated with TNF-α (10 ng/ml, 5 min), the slices were fixed with 4% paraformaldehyde for 1 h, and processed pERK immunohistochemistry using thin sections (15 μm)^13.
(§6) Patch clamp recordings in spinal slices. Whole cell patch-clamp recordings were performed in lamina II neurons in voltage clamp mode^39. After establishing the whole-cell configuration, neurons were held at the holding potentials of −70 mV for recording spontaneous excitatory postsynaptic current (sEPSC). NMDA-induced currents were recorded by bath application of NMDA (50 μM, Sigma) at the holding potential of −50 mV. Membrane currents were amplified with an Axopatch 200A amplifier (Axon Instruments) in voltage-clamp mode. pCLAMP 6 was used and Mini Analysis (Synaptosoft Inc.) software to store and analyze the data. Those cells showing >5% changes from the baseline levels were reagrded as responding ones^24.
(§7) Resolvins were also used for intraplantar injection. RvD1 or RvE1 was injected into the plantar surface of a hindapaw [20 ng, 20 μl , in 1% ethanol (Supplementary FIG. 5a, 5b) or in 10% ethanol (FIG. 2e, Supplementary FIG. 1d)]. DRG cultures were incubated with RvE1 (10 ng/ml, 0.1% ethanol in culture medium) and perfused spinal cord slices with RvE1 (1 ng/ml, in 0.01% ethanol and Kreb's solution).
(§8) Perfusion of spinal cord slices: Spinal cord slices were incubated with chemerin (100 ng/ml, in Kreb's solution), TNF-α (10 ng/ml, in Kreb's solution), capsaicin (100 nM, in 0.01% DMSO and Kreb's solution), TRPV1 antagonist capsazepine (Sigma, 10 μM, in 0.01% DMSO and Kreb's solution), pertussix toxin (0.5 μg/ml, in Kreb's solution), and MEK inhibitor PD98059 and U0126 (CalBiochem, 1 μM, in 0.01% DMSO and Kreb's solution). For pertussix toxin treatment, spinal cord slices were incubated with the toxin for 3 h before stimulation.

[4] = test system: glutamate NMDA receptors (NMDARs); assay: NMDA-induced currents in dorsal horn (lamina II) neurons of spinal cord slices; assay type: cell-based, mice; settings: NMDA 50 μM; TNF-α 10 ng/ml; PD98059 1 μM, U0126 1 μM, capsazepine 10 μM
Procedure: as §5, §6, §7, §8

[5] = test system: carrageenan (CRG)-elicited heat hyperalgesia; assay: Carrageenan (CRG)-elicited heat hyperalgesia; assay type: in vivo, mice; settings: intraplantar ChemR23 siRNA 4 μg at 48 h, 24 h, and 3 h before carrageenan; 4 h after CRG
Procedure: as §1, §3
Resolvins were also used for intraplantar injection. […]

ChemR23 = ChemR23 western blotting after siRNA knockdown; assay type: in vivo, mice
Procedure: siRNAs were mixed with the transfection reagent polyethyleneimine (PEI, Fermentas), 10 min before injection, to increase cell membrane penetration and reduce the degradation (Tan et al., 2005; 2009)^9,10. PEI was dissolved in 5% glucose, and […] of siRNA was mixed with 0.18 μl of PEI, as shown in our previous study (Kawasaki et al., 2008)^7. In the formalin model, siRNA was administrated via intrathecal route (3 μg), delivered at 72 h, 48 h, and 24 h before formalin injection (supplementary FIG. 1a, b). In the carrageenan model, siRNA was administrated via intraplantar route (4 μg), delivered at 48 h, 24 h, and 3 h before carrageenan injection (supplementary FIG. 1c, d). The knockdown effects of ChemR23 siRNA were examined by Western blotting using a ChemR23 antibody (Santa Cruz).
Animals were transcardially perfused with PBS, and the skin, DRG, and spinal cord tissues were rapidly removed and homogenized in a lysis buffer containing a cocktail of protease inhibitors and phosphatase inhibitors. The protein concentrations were determined by BCA Protein Assay (Pierce), and 30 μg of proteins were loaded for each lane and separated on SDS-PAGE gel (4-15%, Bio-Rad). After the transfer, the blots were incubated overnight at 4° C. with polyclonal antibody against ChemR23 (goat, 1:200, Santa Cruz). For loading control, the blots were probed with tubulin antibody (mouse, 1:5000, Sigma).

[6] = capsaicin 100 nM, RvE1 1 ng/ml, chemerin 100 ng/ml, PD98059 and U0126 1 μM

CCC(=O)/C=C/C=C\C[C@@H](O)/C=C/C=C/C=C\[C@@H](O)CCCC(=O)O [18-oxo-RvE1, reference compound]
CFA-evoked heat hyperalgesia ([1]; post-CFA day 3, DHA and EPA 10 μg): essentially inactive

O=C(O)CCC[C@H](O)\C=C/C=C/C=C/[C@H](O)C/C=C\C=C\[C@@H](O)COc1ccc(F)cc1 [19-pf-RvE1, 19-(p-fluorophenoxy)-RvE1]
time for which hyperalgesia was reduced ([1]; post-CFA day 3): 6 h
SNL-induced heat hyperalgesia [2]: more persistent reduction in heat hyperalgesia
SNL-induced heat hyperalgesia ([2]; listed as modified RvE1): reduces SNL-induced heat hyperalgesia

CC/C=C\C/C=C\C/C=C\C/C=C\C/C=C\C/C=C\CCC(=O)O [DHA, docosahexaenoic acid, reference compound]
effective doses relative to that of RvE1 [1]: 10,000 times higher

CC/C=C\C/C=C\C/C=C\C/C=C\C/C=C\CCCC(=O)O [EPA, eicosapentaenoic acid, reference compound]
effective doses relative to that of RvE1 [1]: 10,000 times higher

CS(=O)(=O)Nc1ccc([N+](=O)[O-])cc1OC1CCCCC1 [NS-398]
formalin-induced pain behavior, 2nd phase [3]: Reduction

CC/C=C\C[C@H](O)\C=C/C=C/C=C/[C@H](O)C/C=C\C/C=C\CCC(=O)O [PD1]
nerve injury-induced hyperalgesia ([2]; neuropathic pain model induced by spinal nerve ligation): potently attenuate
pain-like behaviors (inflammatory pain): potently inhibit

COc1cccc(-c2cc(=O)c3ccccc3o2)c1N [PD98059, reference compound]
capsaicin-evoked sEPSC frequency increase (lamina II neurons; [6]): blocked
TNF-α-induced potentiation of NMDA currents (NMDAR activation) [4]: blocked

N#CC(=C(/N)Sc1ccccc1N)/C(C#N)=C(\N)Sc1ccccc1N [U0126, reference compound]
capsaicin-evoked sEPSC frequency increase (lamina II neurons): blocked
TNF-α-induced potentiation of NMDA currents (NMDAR activation) [4]: blocked

COc1cc(CNC(=O)CCCC/C=C/C(C)C)ccc1O [capsaicin, reference compound]
increase in sEPSC frequency (lamina II neurons; capsaicin 100 nM): 2 fold

Oc1cc2c(cc1O)CN(C(=S)NCCc1ccc(Cl)cc1)CCC2 [capsazepine, reference compound]
TNF-α-evoked sEPSC frequency increase (lamina II neurons; TNF-α 10 ng/ml, RvE1 1 ng/ml, capsazepine 10 μM): reduced
TNF-α-induced potentiation of NMDA currents (NMDAR activation) [4]: but not capsazepine blocked

CN1CC[C@]23c4c5ccc(O)c4O[C@H]2[C@@H](O)C=C[C@H]3[C@H]1C5 [morphine]
formalin-induced pain behavior, 2nd phase [3]: Reduction

C=CCN1CC[C@]23c4c5ccc(O)c4O[C@H]2C(=O)CC[C@@]3(O)[C@H]1C5 [naloxone]
reversal of morphine's antinociceptive effect, formalin 2nd phase ([3]; intrathecal naloxone 2 μg): reversed
reversal of RvE1's antinociceptive action, formalin 2nd phase [3]: not RvE1's effect

ChemR23 siRNA: 5′-AACACUGUGUGGUUUGUCAACtt-3′, synthesized by Dharmacon (guide AACACUGUGUGGUUUGUCAACTT; chemistry not given here)
reversal of RvE1's antinociceptive action, formalin 2nd phase [3]: reverses RvE1-induced antinociceptive effect
reversal of RvE1-induced anti-hyperalgesic effect [5]: reverses RvE1-induced anti-hyperalgesic effect
ChemR23 expression in the hindpaw skin (ChemR23; intraplantar siRNA 4 μg at 48 h, 24 h, and 3 h before carrageenan): reduces ChemR23 expression in the hindpaw skin
ChemR23 expression in the DRG (ChemR23; intrathecal siRNA 3 μg, daily for 3 days, before formalin injection): reduces ChemR23 expression in the DRG

pertussis toxin
reversal of RvE1's antinociceptive action, formalin 2nd phase [3]: abrogated

B1: chemerin: a peptide agonist for ChemR23 (R & D Systems) (protein, UniProt Q99969 21-157, looked up)
Retinoic acid receptor …: ELTEAQRRGLQVALEEFHKHPPVQWAFQETSVESAVDTPFPAGIFVRLEFKLQQTSCRKRDWKKPECKVRPNGRKRKCLACIKLGSEDKVLGRLVHCPIETQVLREAEEHQETQCLRVQRAGEDPHSFYFPGQFAFS
modifications: Chemerin
formalin-induced pain behavior, 2nd phase [3]: dose-dependently attenuated
capsaicin-evoked sEPSC frequency increase (lamina II neurons; [6]): abolished
